{
  "source": "patent US20250340520A1",
  "about": "“CRYSTALLINE FORMS OF SODIUM (5-(4-BROMOPHENYL)-6-(2-((5-BROMOPYRIMIDIN-2-YL)OXY)ETHOXY)PYRIMIDIN-4-YL)(SULFAMOYL)AMIDE” (IDORSIA PHARMACEUTICALS LTD, priority 2022, published 2025)",
  "assay": "Comparative stability: HPLC assay of samples stored in open vials",
  "assay_type": "physicochemical",
  "details": "for assay after storage: open vial; for Initial assay: before storage, HPLC assay",
  "experimental": "The assay was determined by use of UV-HPLC (e.g., Shimadzu Nexera X2 System) with an autosampler temperature set at 25° C. and a column temperature set at 50° C. Typically 1 μL of sample is injected and separation is obtained by use of a Phenomenex Gemini 5.0 μm 110 Å, 50×2.0 mm column using a flow of 1.5 mL/min. Samples are typically prepared by solubilization in acetonitrile/carbonate buffer pH10 1/1. A gradient method is used with solvent A consisting of Trizma base buffer 50 mM pH 9 (adjusted with HCl) and solvent B consisting of Acetonitrile+5% (v/v) Trizma base buffer 50 mM pH 9 (adjusted with HCl). Following gradient is typically used: […]",
  "data": [
    {"smiles": "NS(=O)(=O)[N-]c1ncnc(OCCOc2ncc(Br)cn2)c1-c1ccc(Br)cc1.[Na+]", "note": "[COMPOUND in crystalline form 1, sodium (5-(4-bromophenyl)-6-(2-((5-bromopyrimidin-2-yl)oxy)ethoxy)pyrimidin-4-yl)(sulfamoyl)amide]", "values": [
      {"measurement": "assay after storage", "setting": "40° C., 7 days, 11% RH", "value": 104.4, "unit": "%"},
      {"measurement": "assay after storage", "setting": "40° C., 7 days, 75% RH", "value": 104.0, "unit": "%"},
      {"measurement": "assay after storage", "setting": "60° C., 7 days, 11% RH", "value": 104.5, "unit": "%"},
      {"measurement": "assay after storage", "setting": "60° C., 7 days, 75% RH", "value": 102.6, "unit": "%"},
      {"measurement": "assay after storage", "setting": "80° C., 3 days, 11% RH", "value": 103.4, "unit": "%"},
      {"measurement": "assay after storage", "setting": "80° C., 3 days, 75% RH", "value": 72.4, "unit": "%"},
      {"measurement": "Initial assay", "value": 104.1, "unit": "%"},
      {"measurement": "chemical stability in comparison to aprocitentan free acid form (in crystalline Form A)", "setting": "under certain experimental conditions of Table 5", "value": "superior chemical stability"}
    ]},
    {"smiles": "NS(=O)(=O)Nc1ncnc(OCCOc2ncc(Br)cn2)c1-c1ccc(Br)cc1", "note": "[{5-(4-bromo-phenyl)-6-[2-(5-bromo-pyrimidin-2-yloxy)-ethoxy]-pyrimidin-4-yl}-sulfamide, reference compound]", "values": [
      {"measurement": "assay after storage", "setting": "40° C., 7 days, 11% RH", "value": 97.2, "unit": "%"},
      {"measurement": "assay after storage", "setting": "40° C., 7 days, 75% RH", "value": 91.8, "unit": "%"},
      {"measurement": "assay after storage", "setting": "60° C., 7 days, 11% RH", "value": 96.7, "unit": "%"},
      {"measurement": "assay after storage", "setting": "60° C., 7 days, 75% RH", "value": 93.7, "unit": "%"},
      {"measurement": "assay after storage", "setting": "80° C., 3 days, 11% RH", "value": 89.7, "unit": "%"},
      {"measurement": "assay after storage", "setting": "80° C., 3 days, 75% RH", "value": 0.3, "unit": "%"},
      {"measurement": "Initial assay", "value": 96.9, "unit": "%"}
    ]}
  ]
}
